Source: US20260242419A1, “A CYCLIC PEPTIDE FOR TRAPPING INTERLEUKIN-1 BETA” (Merck Sharp & Dohme LLC, priority 2023, published 2026)
Like-named read-outs stand apart in the source and are kept apart here. Starred links: 1 amine or outer side, 2 acyl side, 3 side chain; linkers in the order of their positions; H or OH if unused. Non-standard residues stand in square brackets, D forms with d. Residues, ends and D or L forms follow the SMILES beside them. dPro(4R-(4-pyridylmethyl)) = O=C(O)[C@H]1C[C@@H](Cc2ccncc2)CN1; Ala(piperidin-4-yl) = O=C([C@H](CC1CCN([*:3])CC1)N[*:1])[*:2]; Trp(βS-Me,4-F) = C[C@@H](c1c[nH]c2cccc(F)c12)[C@H](N)C(=O)O; Bip(4'-CONH2) = NC(=O)c1ccc(-c2ccc(C[C@H](N)C(=O)O)cc2)cc1; Bip(4'-COOH) = N[C@@H](Cc1ccc(-c2ccc(C(=O)O)cc2)cc1)C(=O)O; Ala(1-bicyclo(1.1.1)pentyl) = N[C@@H](CC12CC(C1)C2)C(=O)O; X11 = O=C([C@H]1C[C@@H](Cc2ccc(F)c3ccccc23)CN1[*:1])[*:2]; Trp(4-Cl) = N[C@@H](Cc1c[nH]c2cccc(Cl)c12)C(=O)O; X4 = O=C([C@H]1[C@@H](Cc2ccncc2)CCN1[*:1])[*:2]; Ala(pyrimidin-5-yl) = N[C@@H](Cc1cncnc1)C(=O)O; Phe(4-COOH) = N[C@@H](Cc1ccc(C(=O)O)cc1)C(=O)O; Pro(cis-4-F) = O=C(O)[C@@H]1C[C@H](F)CN1; Ala(4-THP) = N[C@@H](CC1CCOCC1)C(=O)O; Dap(CONH2) = NC(=O)NC[C@H](N)C(=O)O; d(αMeD) = C[C@@](N)(CC(=O)O)C(=O)O; 4Pal = N[C@@H](Cc1ccncc1)C(=O)O; d(αMeS) = C[C@@](N)(CO)C(=O)O; dCba = N[C@H](CC1CCC1)C(=O)O; Dab = NCC[C@H](N)C(=O)O; Aib = CC(C)(N)C(=O)O

Biological target: T1, IL-1β (Homo sapiens, UniProt P01584)
T1 construct: purchased BioLegend 579404
Test: IL-6 assay in MRC5 cells: inhibition of IL-1β induced IL-6 secretion (AlphaLISA)
Assay type: cell-based
Conditions: inhibition of IL-1β induced IL-6 secretion in MRC5 cells, read-out: MRC5 IC50
Procedure, shortened: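 Compound was pre-incubated 1 h at ambient temperature with recombinant human IL-1β at 2λ EC80 before adding human lung fibroblast MRC5 cells (3000/well) in EMEM with 0.025% BSA. After overnight culture at 37 °C, 5% CO2, secreted IL-6 in conditioned medium was measured by AlphaLISA; IC50 from 4-parameter logistic fits.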

T1 sequence (P01584 117-269): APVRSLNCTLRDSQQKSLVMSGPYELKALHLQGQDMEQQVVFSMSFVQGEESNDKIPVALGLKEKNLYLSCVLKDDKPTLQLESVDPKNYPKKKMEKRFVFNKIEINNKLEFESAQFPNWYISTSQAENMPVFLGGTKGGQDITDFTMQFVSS

`C[C@@H](c1c[nH]c2cccc(F)c12)[C@@H]1NC(=O)[C@@H]2C[C@H](F)CN2C(=O)CNC(=O)[C@H](Cc2ccc(C(=O)O)cc2)NC(=O)[C@H](Cc2ccncc2)NC(=O)[C@H](Cc2ccc(-c3ccc(C(N)=O)cc3)cc2)NC(=O)[C@H]2C[C@@H](Cc3ccncc3)CN2C(=O)CNC(=O)[C@H](CCN)NC(=O)[C@H](CCC(N)=O)NC(=O)[C@H](CC2CCOCC2)NC(=O)[C@@](C)(CO)NC(=O)[C@H](Cc2c[nH]c3ccccc23)NC(=O)[C@H](CO)NC(=O)C(C)(C)NC1=O` [Example 215] (cyclo([Bip(4'-CONH2)][4Pal][Phe(4-COOH)]G[Pro(cis-4-F)][Trp(βS-Me,4-F)][Aib]SW[d(αMeS)][Ala(4-THP)]Q[Dab]G[dPro(4R-(4-pyridylmethyl))])) showed an IC50 of 0.01 nM.

`C[C@@H](c1c[nH]c2cccc(F)c12)[C@@H]1NC(=O)[C@@H]2C[C@H](F)CN2C(=O)CNC(=O)[C@H](Cc2ccc(C(=O)O)cc2)NC(=O)[C@H](Cc2ccncc2)NC(=O)[C@H](Cc2ccc(-c3ccc(C(=O)O)cc3)cc2)NC(=O)[C@H]2C[C@@H](Cc3ccc(F)c4ccccc34)CN2C(=O)CNC(=O)[C@H](CCN)NC(=O)[C@H](CCC(N)=O)NC(=O)[C@H](Cc2cncnc2)NC(=O)[C@@](C)(CC(=O)O)NC(=O)[C@H](Cc2c[nH]c3ccccc23)NC(=O)[C@H](CO)NC(=O)C(C)(C)NC1=O` [Example 327] (cyclo([Bip(4'-COOH)][4Pal][Phe(4-COOH)]G[Pro(cis-4-F)][Trp(βS-Me,4-F)][Aib]SW[d(αMeD)][Ala(pyrimidin-5-yl)]Q[Dab]G[X11])) was tested, and the IC50 was 0.016 nM.

Compound `C[C@@H](c1c[nH]c2cccc(F)c12)[C@@H]1NC(=O)[C@@H]2C[C@H](F)CN2C(=O)CNC(=O)[C@H](Cc2ccc(C(=O)O)cc2)NC(=O)[C@H](Cc2ccncc2)NC(=O)[C@H](Cc2ccc(-c3ccc(C(=O)O)cc3)cc2)NC(=O)[C@H]2[C@@H](Cc3ccncc3)CCN2C(=O)CNC(=O)[C@H](CNC(N)=O)NC(=O)[C@H](CCC(N)=O)NC(=O)[C@H](Cc2cncnc2)NC(=O)[C@@](C)(CC(=O)O)NC(=O)[C@H](Cc2c[nH]c3cccc(Cl)c23)NC(=O)[C@H](CO)NC(=O)C(C)(C)NC1=O` [Example 226] (cyclo([Bip(4'-COOH)][4Pal][Phe(4-COOH)]G[Pro(cis-4-F)][Trp(βS-Me,4-F)][Aib]S[Trp(4-Cl)][d(αMeD)][Ala(pyrimidin-5-yl)]Q[Dap(CONH2)]G[X4])) has an IC50 of 0.022 nM.

Work on `C[C@@H](c1c[nH]c2cccc(F)c12)[C@@H]1NC(=O)[C@@H]2C[C@H](F)CN2C(=O)CNC(=O)[C@H](Cc2ccc(C(=O)O)cc2)NC(=O)[C@H](Cc2ccncc2)NC(=O)[C@H](Cc2ccc(-c3ccc(C(=O)O)cc3)cc2)NC(=O)[C@H]2C[C@@H](Cc3ccncc3)CN2C(=O)CNC(=O)[C@H](CO)NC(=O)[C@H](CCC(N)=O)NC(=O)[C@H](Cc2cncnc2)NC(=O)[C@@](C)(CC(=O)O)NC(=O)[C@H](Cc2c[nH]c3ccccc23)NC(=O)[C@H](CO)NC(=O)C(C)(C)NC1=O` [Example 156] (cyclo([Bip(4'-COOH)][4Pal][Phe(4-COOH)]G[Pro(cis-4-F)][Trp(βS-Me,4-F)][Aib]SW[d(αMeD)][Ala(pyrimidin-5-yl)]QSG[dPro(4R-(4-pyridylmethyl))])) yielded an IC50 of 0.015 nM.

Work on `C[C@@H](c1c[nH]c2cccc(F)c12)[C@@H]1NC(=O)[C@@H]2C[C@H](F)CN2C(=O)CNC(=O)[C@H](Cc2ccc(C(=O)O)cc2)NC(=O)[C@H](Cc2ccncc2)NC(=O)[C@H](Cc2ccc(-c3ccc(C(=O)O)cc3)cc2)NC(=O)[C@H]2[C@@H](Cc3ccncc3)CCN2C(=O)CNC(=O)[C@H](CCN)NC(=O)[C@H](CCC(N)=O)NC(=O)[C@@H](CC2CCC2)NC(=O)[C@@](C)(CC(=O)O)NC(=O)[C@H](Cc2c[nH]c3ccccc23)NC(=O)[C@H](CO)NC(=O)C(C)(C)NC1=O` [Example 239] (cyclo([Bip(4'-COOH)][4Pal][Phe(4-COOH)]G[Pro(cis-4-F)][Trp(βS-Me,4-F)][Aib]SW[d(αMeD)][dCba]Q[Dab]G[X4])) yielded an IC50 (compound pre-incubated 1 hour with recombinant human IL-1β) of 0.02 nM.

`C[C@@H](c1c[nH]c2cccc(F)c12)[C@@H]1NC(=O)[C@@H]2C[C@H](F)CN2C(=O)CNC(=O)[C@H](Cc2ccc(C(=O)O)cc2)NC(=O)[C@H](CC23CC(C2)C3)NC(=O)[C@H](Cc2ccc(-c3ccc(C(=O)O)cc3)cc2)NC(=O)[C@H]2C[C@@H](Cc3ccncc3)CN2C(=O)CNC(=O)[C@H](CO)NC(=O)[C@H](CCC(N)=O)NC(=O)[C@H](CC2CCNCC2)NC(=O)[C@@](C)(CO)NC(=O)[C@H](Cc2c[nH]c3ccccc23)NC(=O)[C@H](CO)NC(=O)C(C)(C)NC1=O` [Example 181] (cyclo([Bip(4'-COOH)][Ala(1-bicyclo(1.1.1)pentyl)][Phe(4-COOH)]G[Pro(cis-4-F)][Trp(βS-Me,4-F)][Aib]SW[d(αMeS)][Ala(piperidin-4-yl)]QSG[dPro(4R-(4-pyridylmethyl))])) gave an IC50 of 0.021 nM.
